Results on 21 molecules are retold here after patent US20250034159A1, “INHIBITORS OF EPIDERMAL GROWTH FACTOR RECEPTOR” (ORIC Pharmaceuticals, Inc., priority 2021, published 2025).

Test [1] deals with recombinant human EGFR exon 19 deletion/C797S double mutant protein (Homo sapiens (Human), UniProt P00533, C797S/DEL746-750). As to the kind of experiment: Biological Activity Assay C: biochemical assay against EGFR exon 19 deletion/C797S protein (EGFR d19/CS). The method, then:
In Row A of a 384-well polypropylene plate, was added 48 μL of DMSO. In wells A1 and A24, were added 12 μL of DMSO. […] To a well in Row A were added 12 μL of each 10 mM test compound stock (100% DMSO). […] The final intermediate dilution plate contained 4×16-point compound serial dilutions in assay buffer. The DMSO concentration was 10%. The intermediate compound dilution plate was transferred to the Bravo and the “5 uL dispense into ARP.pro” protocol was run. To the black low volume assay ready plates, were added 5 μL of 40 uM Phosphosens peptide sensor/4 mM ATP working solution to each well. […] To column 24, was added 10 μL of assay buffer. The final DMSO concentration was 2.5%. […] The plates were sealed with the TopSeal-A Plus plate seals. […] Set for 90 cycles with 120 second interval. […] The slope of each curve was constructed using Dotmatics in each well, and each IC50s was calculated using a 4-parameter fit model.

For test [2], the system named is Ba/F3_EGFR WT cells. The experiment in a line: Biological Activity Assay D: BaF3 cell proliferation assay, EGFR wild-type (BaF3 WT). The test is classed as cell-based. The settings on record: Ba/F3 EGFR; Ba/F3_EGFR WT cells, ~72 hours, CellTiter-Glo; read-out: BaF3 WT IC50. As for the experimental part: (§1) One frozen vial of cells should be thawed into one T25 flask in 10 mL media. Keep the flask upright in the incubator.
(§2) Method: One frozen vial of cells was thawed into one T25 flask in 10 mL media and the flask was kept upright in the incubator. Cells were split 1:10 every two to three days when cells reached confluency of around 1×10^6 cells/mL. Bravo protocol files were used with Greiner 384-well plates for all steps of compound preparation, cell plating and compound addition. […] 16 μL of DMSO were added (for compounds starting at 20 μM) or 28 μL DMSO (for compounds starting at 5 μM) to 96-well V-bottom polypropylene plate: wells 1A-1H (8 compounds/plate). […] 20 μL DMSO were added to the remainder of the wells (columns 2-12) in the 96-well V-bottom plate. A Bravo liquid handler was used to make 1:3 serial dilutions from columns 1 to 11 (12 remains as DMSO only) to prepare the DMSO dilution plate. 144 μL media were added to each well of a new 96-well V-bottom polypropylene plate to prepare the intermediate dilution plate. A Bravo or 96-head Integra liquid handler was used to add and mix 6 μL of test compound from the DMSO dilution plate to the intermediate dilution plate. (1:25 dilution). Cells were transferred from a flask into a 50 mL conical, vortex gently and the number of cells were counted, with a target cell number of about 1×10^6 cells per mL. The cells were diluted in culture medium in 50 mL conical or T25 flask, and the cell suspension was added to BRAVO reservoir and then use Bravo protocol to plate the appropriate number of cells shown below in 36 μl of medium per well as follows: Ba/F3-WT-EGFR 2000 cells per well of a 384 well plate; Ba/F3-LR/CS-EGFR 2000 cells per well of a 384 well plate; and Ba/F3-d19/CS-EGFR 1500 cells per well of a 384 well plate. An extra 10 mL of dead volume was utilized in each reservoir.
(§3) Using a Bravo liquid handler, 4 μl of test compound solution was added per well from the intermediate dilution plate to plated cells (1:10 dilution from the intermediate plate, final compound dilution 1:250 and final DMSO concentration per well is 0.4%). Using the 96 BRAVO Head, 25 μl were aspirated from the intermediate dilution plate and 4 μl each were dispensed into 4 wells (square pattern) in the 384-well plate. Any remaining test compound is dispensed into a secondary plate to prevent cross contamination of cells in the intermediate compound plate. After the compounds were added, the plate was shaken at 600 rpm gently for 60 see, and the plates were incubated in a tissue culture incubator, 37° C., 5% CO2, for ˜ 72 hours. After incubation, CTG 2.0 reagent was allowed to equilibrate to room temperature (˜3 hours) and cells to reach room temperature (˜10-15 minutes) and reagent was added to cells (40 μL/well) using a Bravo liquid handler. The plates were shaken to allow proper mixing (˜5 min) and let settle for 10 minutes and were read on Tecan plate reader using the appropriate luminescence method. Data from plate reader was transferred to an excel file and entered directly into Dotmatics using the protocols under EGFR Project/Cell Proliferation/named: “BaF3_EGFRwt_CP”, “BaF3_EGFR_d19/CS_CP”, “BaF3_EGFR_LR/CS_CP”. Curves were fit with a 4-parameter model and IC50s calculated by the Dotmatics software. DMSO wells were averaged to define the high control (100% growth). The average of the highest concentration of the positive control compound (afatinib) was used to define the 0% growth and used to lock the bottom of the curves. The tops of the curves were not fixed.

For test [3], the system named is BaF3_EGFR LR/CS cells. The experiment in a line: Biological Activity Assay D: BaF3 cell proliferation assay, EGFR L858R/C797S mutant (BaF3 LR/CS). The test is classed as cell-based. Particulars: Ba/F3 EGFR; BaF3_EGFR LR/CS cells, ~72 hours, CellTiter-Glo; read-out: BaF3 LR/CS IC50. As for the experimental part:
as §1, §2, §3

The test system of test [4] is BaF3_EGFR d19/CS cells. As to the kind of experiment: Biological Activity Assay D: BaF3 cell proliferation assay, EGFR exon 19 deletion/C797S (BaF3 d19/CS). The test is classed as cell-based. Particulars: Ba/F3 EGFR; BaF3_EGFR d19/CS cells, ~72 hours, CellTiter-Glo; read-out: BaF3 d19/CS IC50. The method, then: as §1, §2, §3

Sequence of recombinant human EGFR exon 19 deletion/C797S double mutant protein (P00533 other isoform, or with tags, fused parts or gaps C797S/del 1-668/del 746-750 limits assumed): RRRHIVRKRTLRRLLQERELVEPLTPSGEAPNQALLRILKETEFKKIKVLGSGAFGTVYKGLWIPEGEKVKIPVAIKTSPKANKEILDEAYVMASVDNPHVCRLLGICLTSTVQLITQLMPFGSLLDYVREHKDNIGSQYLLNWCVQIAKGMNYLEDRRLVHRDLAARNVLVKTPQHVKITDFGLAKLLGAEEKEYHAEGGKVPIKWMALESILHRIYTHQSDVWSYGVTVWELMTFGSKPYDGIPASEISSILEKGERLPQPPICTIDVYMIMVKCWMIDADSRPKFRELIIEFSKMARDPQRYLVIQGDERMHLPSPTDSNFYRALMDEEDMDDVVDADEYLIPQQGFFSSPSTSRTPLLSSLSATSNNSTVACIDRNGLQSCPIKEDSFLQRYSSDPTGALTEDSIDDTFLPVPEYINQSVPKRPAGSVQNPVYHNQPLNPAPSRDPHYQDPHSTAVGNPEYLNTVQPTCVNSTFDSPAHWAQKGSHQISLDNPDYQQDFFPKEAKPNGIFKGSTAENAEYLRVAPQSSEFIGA

For the molecule `CC(=O)N1CC[C@@H](n2cc(-c3ncnc4oc(-c5ccccc5)cc34)c(-c3ccc(F)cc3)n2)C1` (single isomer, unassigned) [Example 128], the IC50 was determined as 0.00041 µM in test [1], 1.74 µM in test [2], 0.105 µM in test [3] and 0.125 µM in test [4].

As to `CC(=O)N1CC[C@H](n2cc(-c3ncnc4oc(-c5ccccc5)cc34)c(-c3ccc(F)cc3)n2)C1` (single isomer, unassigned) [Example 129], the IC50 in test [1] was found to be 0.0002 µM; in test [2] it was 1.61 µM; in test [3], 0.0666 µM; in test [4] it was 0.107 µM.

`Fc1ccc(-c2nn([C@@H]3CCCOC3)cc2-c2ncnc3oc(-c4ccccc4)cc23)cc1` (single isomer, unassigned) [Example 136]: the IC50 in test [1] came to 0.00097 µM; in test [2], 3.05 µM; in test [3] it was 0.0815 µM; in test [4] it was 0.127 µM.

As for `Fc1ccc(-c2nn([C@H]3CCCOC3)cc2-c2ncnc3oc(-c4ccccc4)cc23)cc1` (single isomer, unassigned) [Example 137], the IC50 came out at 0.00069 µM in test [1], 2.5 µM in test [2], 0.0405 µM in test [3] and 0.0713 µM in test [4].

In the case of `Fc1ccc(-c2nn([C@H]3CCOC[C@@H]3F)cc2-c2ncnc3oc(-c4ccccc4)cc23)cc1` (single isomer, unassigned) [Example 152], the IC50 in test [1] came to 0.00133 µM; in test [2], 2.02 µM; in test [3], 0.0225 µM; in test [4], 0.0889 µM.

On to `Fc1ccc(-c2nn([C@@H]3CCOC[C@H]3F)cc2-c2ncnc3oc(-c4ccccc4)cc23)cc1` (single isomer, unassigned) [Example 153], for which the IC50 in test [1] worked out at 0.00104 µM; in test [2], 1.8 µM; in test [3], 0.0223 µM; in test [4] it was 0.0604 µM.

Regarding `CN1CC[C@@H](n2cc(-c3ncnc4oc(-c5ccccc5)cc34)c(-c3ccc(F)cc3)n2)C1=O` (single isomer, unassigned) [Example 166], the IC50 in test [1] is 0.00029 µM; in test [2], 1.35 µM; in test [3] it was 0.0196 µM; in test [4], 0.0538 µM.

On to `CN1CC[C@H](n2cc(-c3ncnc4oc(-c5ccccc5)cc34)c(-c3ccc(F)cc3)n2)C1=O` (single isomer, unassigned) [Example 167], for which the IC50 turned out to be 0.00083 µM in test [1], 1.64 µM in test [2], 0.0328 µM in test [3] and 0.162 µM in test [4].

In the case of `CS(=O)(=O)[C@@H]1CC[C@H](n2cc(-c3ncnc4oc(-c5ccccc5)cc34)c(-c3ccc(F)cc3)n2)C1` (single isomer, unassigned) [Example 192], the IC50 in test [1] came to 0.00097 µM; in test [2] it was 3.07 µM; in test [3], 0.196 µM; in test [4], 0.26 µM.

For the molecule `CS(=O)(=O)[C@H]1CC[C@@H](n2cc(-c3ncnc4oc(-c5ccccc5)cc34)c(-c3ccc(F)cc3)n2)C1` (single isomer, unassigned) [Example 193], the IC50 in test [1] was 0.00164 µM; in test [2] it was 3.04 µM; in test [3] it was 0.174 µM; in test [4] it was 0.259 µM.

As for `Fc1ccc(-c2nn([C@H]3CCOC[C@H]3F)cc2-c2ncnc3oc(-c4ccccc4)cc23)cc1` (single isomer, unassigned) [Example 210], the IC50 in test [1] worked out at 0.0005 µM; in test [2] it was 1.69 µM; in test [3], 0.0611 µM; in test [4], 0.0922 µM.

With `Fc1ccc(-c2nn([C@@H]3CCOC[C@@H]3F)cc2-c2ncnc3oc(-c4ccccc4)cc23)cc1` (single isomer, unassigned) [Example 211], the IC50 turned out to be 0.00035 µM in test [1], 0.886 µM in test [2], 0.0183 µM in test [3] and 0.0201 µM in test [4].

In the case of `C[C@@H]1OCC[C@H]1n1cc(-c2ncnc3oc(-c4ccccc4)cc23)c(-c2ccc(F)cc2)n1` (single isomer, unassigned) [Example 213], the IC50 in test [1] is 0.00051 µM; in test [2], 2.61 µM; in test [3], 0.0809 µM; in test [4] it was 0.168 µM.

Regarding `C[C@H]1OCC[C@@H]1n1cc(-c2ncnc3oc(-c4ccccc4)cc23)c(-c2ccc(F)cc2)n1` (single isomer, unassigned) [Example 214], the IC50 in test [1] was found to be 0.00088 µM; in test [2] it was 2.51 µM; in test [3], 0.136 µM; in test [4] it was 0.303 µM.

In the case of `CC1(C)C[C@H](Cn2cc(-c3ncnc4oc(-c5ccccc5)cc34)c(-c3ccc(F)cc3)n2)O1` (single isomer, unassigned) [Example 221], the IC50 is 0.00033 µM in test [1], 0.71 µM in test [2], 0.0207 µM in test [3] and 0.0518 µM in test [4].

As to `CC1(C)C[C@@H](Cn2cc(-c3ncnc4oc(-c5ccccc5)cc34)c(-c3ccc(F)cc3)n2)O1` (single isomer, unassigned) [Example 222], the IC50 came out at 0.00059 µM in test [1], 1.25 µM in test [2], 0.0767 µM in test [3] and 0.182 µM in test [4].

As to `CC1(C)C[C@H](n2cc(-c3ncnc4oc(-c5ccccc5)cc34)c(-c3ccc(F)cc3)n2)CCO1` (single isomer, unassigned) [Example 225], the IC50 in test [1] was determined as 0.00488 µM; in test [2], 18.9 µM; in test [3] it was 0.503 µM; in test [4] it was 0.886 µM.

In the case of `CC1(C)C[C@@H](n2cc(-c3ncnc4oc(-c5ccccc5)cc34)c(-c3ccc(F)cc3)n2)CCO1` (single isomer, unassigned) [Example 226], the IC50 amounted to 0.00186 µM in test [1], 10.2 µM in test [2], 0.236 µM in test [3] and 0.413 µM in test [4].

Consider `Fc1ccc(-c2nn([C@@H]3CCCCC3(F)F)cc2-c2ncnc3oc(-c4ccccc4)cc23)cc1` (single isomer, unassigned) [Example 230], for which the IC50 in test [1] was found to be 0.0051 µM; in test [2], 2.37 µM; in test [3], 0.0885 µM; in test [4], 0.287 µM.

Turning to `Fc1ccc(-c2nn([C@H]3CCCCC3(F)F)cc2-c2ncnc3oc(-c4ccccc4)cc23)cc1` (single isomer, unassigned) [Example 233], the IC50 in test [1] came to 0.00409 µM; in test [2], 6.04 µM; in test [3] it was 0.228 µM; in test [4], 0.414 µM.

Take `CC1(C)C[C@@H](n2cc(-c3ncnc4oc(-c5ccccc5)cc34)c(-c3ccc(F)cc3)n2)CO1` (single isomer, unassigned) [Example 237]: the IC50 in test [1] worked out at 0.00074 µM; in test [2] it was 2.5 µM; in test [3] it was 0.035 µM; in test [4] it was 0.0739 µM.
